pIC50: −log10 of the molar value.

The target of assay [1] is T1, IDO (Homo sapiens, UniProt P14902). The assay can be described thus: LLE_IDO_ABS_DR (IDO assay).
Assay [2] addresses T1, IDO. Briefly: Kynurenine assay in Hela cells stimulated with IFN-γ to express IDO. Type of assay: cell-based. Set-up: endogenous in cells; host or cells: HeLa (ATCC CCL-2), stimulated with human recombinant IFN-gamma. The following applies: 20 h, read-out: Hela Kyurenine (IC50). The protocol:
IFNg (R&D, 28-IF-100)—resuspend at 10 ug/mL in PBS with 0.1% BSA 30% TCA
Ehrlich reagent (2% w/v p-dimethylaminobenzaldehyde in glacial acetic acid)
Cell Titer 96 Aqueous Non-Radioactive Cell Proliferation Assay, MTS (Promega, Cat # G5430)
Cell Lines and Culture Conditions
Hela cancer cell lines were acquired from the American Type Culture Collection. Cells were maintained in phenol red free-RPMI1640 medium containing high glucose and L-glutamine (Invitrogen) supplemented with 10% fetal bovine serum (FBS; Invitrogen). Cell cultures were incubated at 37° C., 5% CO2, and 100% humidity.
Cell Treatment and Kynurenine Assay
Hela cells were seeded on 96-well plates (40,000 cells per well) and allowed to adhere for 5-6 hours. Cells were then treated with vehicle (DMSO) or with IDO inhibitor at a top dose of 30 μM (3-fold dilution all the way down to 1.5 nM). A final concentration of 100 ng/mL of human recombinant IFN-γ (R&D, 28-IF-100) was immediately added to the cells to stimulate IDO expression. Treated cells were then incubated for 20 hours at 37° C. At the end of the 20 h incubation, reactions were terminated by the addition of 30% TCA to each well. Plates were incubated for 30 minutes at 50° C. to hydrolyze N-formylkynurenine to kynurenine. Cells were centrifuged 10 minutes at 2400 rpm. 100 ul of supernatants were transferred to new 96 flat well plates and mixed with 100 ul Ehrlich reagent. The resulting solution was incubated 10 minutes at RT. Absorbance at 490 nm was read using Spectra Max 384 (Molecular Devices).

Assay [3] addresses T2, Human IDO1 (Homo sapiens, UniProt P14902).
T2 construct: expressed in transfected cells; host or cells: HEK293
The assay can be described thus: IDO Kynurenine Assay with Human IDO1/HEK293 Cells. The class given is cell-based. The settings on record: read-out: HEK human IDO-1 (IC50). The procedure, abridged:
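HEK293 cells stably expressing human IDO1, in phenol red-free RPMI/10% FBS, exposed to compound for 20 h at 37 °C. Stopped with 0.2% TCA (50 °C, 30 min); kynurenine in supernatant detected with Ehrlich reagent, absorbance 490 nm.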

T2 sequence (P14902 whole entry): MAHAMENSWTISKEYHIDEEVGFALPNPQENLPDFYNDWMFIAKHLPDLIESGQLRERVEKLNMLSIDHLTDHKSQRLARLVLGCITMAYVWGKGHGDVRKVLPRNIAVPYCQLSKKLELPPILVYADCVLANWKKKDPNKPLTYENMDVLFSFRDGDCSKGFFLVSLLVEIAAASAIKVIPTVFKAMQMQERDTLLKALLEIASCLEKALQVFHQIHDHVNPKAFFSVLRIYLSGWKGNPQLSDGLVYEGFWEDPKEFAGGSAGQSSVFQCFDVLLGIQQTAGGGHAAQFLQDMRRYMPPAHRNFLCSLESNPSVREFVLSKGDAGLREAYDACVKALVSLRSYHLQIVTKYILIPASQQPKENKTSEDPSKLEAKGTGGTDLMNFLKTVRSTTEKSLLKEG
T1 sequence (P14902 whole entry): as above

Turning to `CN(c1ccc(-c2ccccc2-c2nnn[nH]2)cc1NC(=O)Nc1ccc(C(F)(F)F)cc1)C1CCCCC1` [Example 2, 1-(4-(Cyclohexyl(methyl)amino)-2′-(1H-tetrazol-5-yl)biphenyl-3-yl)-3-(4-(trifluoromethyl)phenyl)urea], the figures for the negative-log IC50 (pIC50) in assay [1] and in assay [2] were 7.05 and 7.70, respectively. The like results for `Cc1ccc(NC(=O)Nc2cc(-c3ccccc3-c3nnn[nH]3)ccc2N(C)C2CCCC2)cc1` [Example 3, 1-(4-(Cyclopentyl(methyl)amino)-2′-(1H-tetrazol-5-yl)biphenyl-3-yl)-3-p-tolylurea] were, in that order, 7.22 and 8.00. The like results for `CN(c1ncc(-c2ccccc2-c2nnn[nH]2)cc1NC(=O)Nc1ccccc1F)C1CCCCC1` [Example 37, 1-(5-(2-(1H-Tetrazol-5-yl)phenyl)-2-(cyclohexyl(methyl)amino)pyridin-3-yl)-3-(2-fluorophenyl)urea] were, in that order, 7.40 and 8.00. Consider `COc1ccc(-c2ccc(N(C)C3CCCCC3)c(NC(=O)Nc3ccccc3Cl)c2)cc1C(=O)O` [Example 42, 3′-(3-(2-chlorophenyl)ureido)-4′-(cyclohexyl(methyl)amino)-4-methoxybiphenyl-3-carboxylic acid], for which, in assay [2], the pIC50 is 5.93.

On to `COc1ccc(-c2ccc(N(C)C3CCCCC3)c(NC(=O)Nc3ccc(C)cc3)c2)cc1C(=O)O` [Example 43, 4′-(cyclohexyl (methyl)amino)-4-methoxy-3′-(3-p-tolylureido)biphenyl-3-carboxylic acid], for which the pIC50 in assay [2] was 5.84. Turning to `Cc1ccc(NC(=O)Nc2cc(-c3ccccc3-c3nnn[nH]3)ccc2N(C)C2CCCCC2)cc1` [Example 44, 1-(4-(cyclohexyl (methyl)amino)-2′-(1H-tetrazol-5-yl)biphenyl-3-yl)-3-p-tolylurea], the pIC50 in assay [1] was 8.10; in assay [2], 8.76.

As to `CN(c1ccc(-c2ccccc2-c2nnn[nH]2)cc1NC(=O)Nc1ccccc1Cl)C1CCCCC1` [Example 45, 1-(2-chlorophenyl)-3-(4-(cyclohexyl (methyl)amino)-2′-(1H-tetrazol-5-yl)biphenyl-3-yl)urea], the pIC50 is 7.22 in assay [1] and 8.00 in assay [2]. The like results for `Cc1ccc(NC(=O)Nc2cc(-c3ccccc3-c3nnn[nH]3)ccc2NC2CCCCC2)cc1` [Example 46, 1-(4-(cyclohexylamino)-2′-(1H-tetrazol-5-yl)biphenyl-3-yl)-3-p-tolylurea] were, in that order, 6.89 and 7.05. On the same counts, the results for `Cc1ccc(NC(=O)Nc2cc(-c3ccccc3-c3nnn[nH]3)ccc2N2CCC[C@@H]3CCCC[C@@H]32)cc1` [Example 47, 1-(4-((4aS,8aS)-octahydroquinolin-1(2H)-yl)-2′-(1H-tetrazol-5-yl)biphenyl-3-yl)-3-p-tolylurea] are 7.40 and 8.00. On the same counts, the results for `Cc1ccc(NC(=O)Nc2cc(-c3ccccc3C(=O)O)ccc2NC2CCCCC2)cc1` [Example 48, 4′-(cyclohexyl-amino)-3′-(3-p-tolylureido)biphenyl-2-carboxylic acid] are 6.30 and 6.07. For the compound `Cc1ccc(NC(=O)Nc2cc(-c3ccccc3C(=O)O)ccc2N2CCC[C@@H]3CCCC[C@@H]32)cc1` [Example 49, 4′-((4aS,8aS)-octahydroquinolin-1(2H)-yl)-3′-(3-p-tolylureido)biphenyl-2-carboxylic acid], the pIC50 in assay [1] is 6.80; in assay [2] it was 6.74. Take `Cc1ccc(NC(=O)Nc2cc(-c3ccccc3C(=O)O)ccc2N(C)C2CCOCC2)cc1` [Example 51, 4′-(methyl(tetra-hydro-2H-pyran-4-yl)amino)-3′-(3-p-tolylureido)biphenyl-2-carboxylic acid]: the negative-log IC50 (pIC50) in assay [2] was 5.67. Take `Cc1cc(NC(=O)Nc2cc(-c3ccccc3-c3nnn[nH]3)ccc2N(CC(C)C)CC2CC(F)(F)C2)on1` [Example 382]: the negative logarithm of the IC50 (pIC50) in assay [3] is 6.46; in assay [1] it was 6.30.

Consider `Cc1ccc(NC(=O)Nc2cc(-c3ccccc3-c3nnn[nH]3)ccc2N2C[C@@H]3C[C@H]2CN3c2ccc(F)cc2)cc1` [Example 383], for which the figures for the pIC50 in assay [3] and in assay [1] were 6.89 and 7.15, respectively. Regarding `CC(C)CN(CC1CC(F)(F)C1)c1ccc(-c2ccccc2-c2nnn[nH]2)cc1NC(=O)Nc1cc(C(C)C)no1` [Example 384], the pIC50 in assay [3] is 5.72; in assay [1], 5.79. The like results for `C=C(C)CN(CC(F)(F)F)c1ccc(-c2ccccc2-c2nnn[nH]2)cc1NC(=O)Nc1ccc(C)cc1` [Example 472] were, in that order, 8.04 and 8.00. The like results for `C=C(C)CN(CC(F)(F)F)c1ccc(-c2cc(F)ccc2C(=O)O)cc1NC(=O)Nc1ccc(C)cc1` [Example 473] were, in that order, 7.22 and 7.15.

`Cc1ccc(NC(=O)Nc2cc(-c3cc(F)ccc3-c3nnn[nH]3)ccc2N(CC(C)C)CC(C)C)cc1` [Example 483]: the pIC50 in assay [3] is 8.13; in assay [1], 8.21. On the same counts, the results for `CC(C)CN(CC(C)C)c1ccc(-c2cc(F)ccc2-c2nnn[nH]2)cc1NC(=O)Nc1ccccc1F` [Example 484] are 8.00 and 8.60.

Regarding `Cc1ccc(NC(=O)Nc2cc(-c3ccccc3-c3nnn[nH]3)ccc2N(CCC(F)(F)F)Cc2ccc(F)cc2C(F)(F)F)cc1` [Example 502, 1-(4-((4-fluoro-2-(trifluoromethyl)benzyl)(3,3,3-trifluoropropyl)amino)-2′-(1H-tetrazol-5-yl)-[1,1′-biphenyl]-3-yl)-3-(p-tolyl)urea], the pIC50 in assay [3] was 7.70; in assay [1] it was 8.30.

In the case of `O=C(Nc1ccc(OC(F)(F)F)cc1)Nc1cc(-c2ccccc2-c2nnn[nH]2)ccc1N(CCC(F)(F)F)Cc1ccc(OC(F)(F)F)cc1` [Example 503, 1-(2′-(1H-Tetrazol-5-yl)-4-((4-(trifluoromethoxy)benzyl)(3,3,3-trifluoropropyl)amino)-[1,1′-biphenyl]-3-yl)-3-(4-(trifluoromethoxy)phenyl)urea], the pIC50 in assay [3] is 8.00; in assay [1], 8.65. On the same counts, the results for `O=C(Nc1ccc(F)cc1F)Nc1cc(-c2ccccc2-c2nnn[nH]2)ccc1N(CCC(F)(F)F)Cc1ccc(OC(F)(F)F)cc1` [Example 504, 1-(2′-(1H-Tetrazol-5-yl)-4-((4-(trifluoromethoxy)benzyl)(3,3,3-trifluoropropyl)amino)-[1,1′-biphenyl]-3-yl)-3-(2,4-difluorophenyl)urea] are 8.29 and 9.40. The like results for `Cc1ccc(NC(=O)Nc2cc(-c3ccccc3C(=O)O)ccc2N(CC(C)C)C2CCC(F)(F)CC2)cc1` [Example 512, 4′-((4,4-Difluorocyclohexyl)(isobutyl)amino)-3′-(3-(p-tolyl)ureido)-[1,1′-biphenyl]-2-carboxylic acid] were, in that order, 7.30 and 8.54. The like results for `CC(C)CN(c1ccc(-c2ccccc2-c2nnn[nH]2)cc1NC(=O)Nc1ccc(OC(F)(F)F)cc1)C1CCC(F)(F)CC1` [Example 514, 1-(4((4,4-Difluorocyclohexyl)(isobutyl)amino)-2′-(1H-tetrazol-5-yl)-[1,1′-biphenyl]-3-yl)-3-(4-(trifluoromethoxy)phenyl)urea] were, in that order, 7.70 and 8.00.

One may read the pIC50 as −log10 of the IC50, conventionally taken in molar units.

The values above are taken from US9758492B2, “IDO inhibitors” (Bristol-Myers Squibb Company, priority 2013, dated 2017).
